Measured values from ChEMBL document CHEMBL1201862, “PubChem BioAssay data set” (2004).
The source made the active and inactive calls.

Assays:
[1] = NIH-3T3 fibroblast cytotoxicity, dose response, cytotoxicity control, cell-based, fluorescence, Alamar Blue, secondary assay (AID 2327); assay type: functional;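 also: NIH-3T3 mouse fibroblasts cultured with fluconazole at 8 µg/mL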
[2] = molecular target: Sphingosine 1-phosphate receptor 2 (Homo sapiens, UniProt O95136); assay: Dose Response Cell Based Assay for Antagonists of the S1P2 Receptor. [Related pubchem assays: 856, 736 ]; assay type: functional
[3] = C. albicans growth with fluconazole, confirmation, fluorescence, retest (AID 2467); assay type: functional, cell-based
Jurkat = assay: antigen receptor-induced NF-kB inhibitors, dose response, Jurkat, luciferase reporter, luminescence, B- and T-cell (AID 489004); assay type: functional, cell-based; settings: Homo sapiens;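 also: NF-kB luciferase reporter Jurkat cells stimulated with PMA plus ionomycin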
[4] = cytotoxicity in HEK-293T NF-kB-Luc cells, dose response, cytotoxicity control for B/T-cell NF-kB inhibitor project, cell-based, uHTS hits (AID 489019); assay type: functional;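 also: IC50 reflects cytotoxicity as loss of cell viability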
INS1 = assay: beta cell apoptosis inhibitors, cytokine rescue, dose response, luminescence, retest (AID 449756); assay type: functional, cell-based; settings: Rattus norvegicus;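 also: cell death triggered by IL-1 beta plus TNF-alpha plus IFN-gamma mixture; protective hits raise ATP signal compared with cytokine alone wells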
Protein skinhead-1 = molecular target: T1, Protein skinhead-1 (Caenorhabditis elegans, UniProt P34707); assay type: functional
T1 sequence (P34707 whole entry): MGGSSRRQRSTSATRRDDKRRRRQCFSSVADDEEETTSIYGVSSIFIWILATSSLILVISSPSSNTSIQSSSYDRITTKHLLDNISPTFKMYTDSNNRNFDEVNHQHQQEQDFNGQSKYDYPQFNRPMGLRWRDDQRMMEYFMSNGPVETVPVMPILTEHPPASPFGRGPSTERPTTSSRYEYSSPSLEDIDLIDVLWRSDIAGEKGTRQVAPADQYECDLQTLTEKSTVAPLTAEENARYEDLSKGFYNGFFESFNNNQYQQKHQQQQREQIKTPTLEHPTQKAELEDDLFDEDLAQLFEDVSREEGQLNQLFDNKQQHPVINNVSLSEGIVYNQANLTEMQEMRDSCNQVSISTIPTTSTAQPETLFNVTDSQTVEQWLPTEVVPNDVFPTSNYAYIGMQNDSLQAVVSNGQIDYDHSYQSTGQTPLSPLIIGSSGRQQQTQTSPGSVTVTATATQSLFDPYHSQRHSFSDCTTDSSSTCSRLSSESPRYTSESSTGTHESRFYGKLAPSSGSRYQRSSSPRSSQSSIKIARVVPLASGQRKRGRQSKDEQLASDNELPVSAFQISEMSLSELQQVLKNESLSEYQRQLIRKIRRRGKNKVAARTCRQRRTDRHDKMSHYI

[5] = Vero cell cytotoxicity, dose response, cytotoxicity control for Vif-APOBEC3G degradation inhibitor project, Vero cells (AID 1117358); assay type: functional; settings: Human immunodeficiency virus 1, Vero
[6] = molecular target: RNA-editing ligase 1, mitochondrial (Trypanosoma brucei brucei, UniProt P86926); assay: TbREL1 ligase inhibitors, dose response, biochemical, fluorescence, Trypanosoma brucei (AID 1117295); assay type: functional
[7] = P. falciparum 3D7-ScDHODH growth inhibitors, dose response, SYBR Green, dry powder samples (AID 1159570); assay type: functional, cell-based;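 also: parasite growth measured after 72 hours of compound exposure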
[8] = HepG2 cell cytotoxicity, dose response, cytotoxicity control, plate reader, dry powder samples (AID 1159569); assay type: functional, cell-based;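 also: inhibitor potency with signal falling toward the positive control level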
[9] = P. falciparum Dd2 growth inhibitors, dose response, SYBR Green, cherry-picked samples (AID 1159567); assay type: functional, cell-based
[10] = P. falciparum Dd2 growth inhibitors, dose response, SYBR Green, dry powder samples (AID 1159566); assay type: functional, cell-based;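 also: potency for growth inhibition with lower SYBR green DNA signal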
[11] = HepG2 cell cytotoxicity, dose response, cytotoxicity control, cherry-picked samples (AID 1159577); assay type: functional, cell-based
[12] = Plasmodium falciparum Dd2 Sybr green parasite growth Measured in Cell-Based and Microorganism Combination System Using Plate Reader - 2153-01_Inhibitor_Dose_DryPowder_Activity_Set3.; assay type: functional
[13] = P. falciparum ATP4 D1247Y mutant growth inhibitors, dose response, NITD609-resistant line, SYBR Green, dry powder (AID 1159571); assay type: functional, cell-based;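 also: parasites synchronized at ring stage by sorbitol before testing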

RNA-editing ligase 1, mitochondrial, sequence (P86926 whole entry): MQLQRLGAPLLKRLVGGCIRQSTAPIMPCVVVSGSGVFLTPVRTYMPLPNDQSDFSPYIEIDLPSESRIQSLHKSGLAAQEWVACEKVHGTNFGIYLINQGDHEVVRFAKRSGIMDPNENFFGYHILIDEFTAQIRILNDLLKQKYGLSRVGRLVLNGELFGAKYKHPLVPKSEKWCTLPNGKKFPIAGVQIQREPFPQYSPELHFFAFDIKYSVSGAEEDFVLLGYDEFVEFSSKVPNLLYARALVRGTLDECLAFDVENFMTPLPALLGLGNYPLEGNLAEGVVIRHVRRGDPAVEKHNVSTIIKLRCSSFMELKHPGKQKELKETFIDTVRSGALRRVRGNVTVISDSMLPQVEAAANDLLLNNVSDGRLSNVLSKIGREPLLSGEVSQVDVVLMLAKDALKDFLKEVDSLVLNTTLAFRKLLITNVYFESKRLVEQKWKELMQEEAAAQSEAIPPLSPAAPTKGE
Sphingosine 1-phosphate receptor 2, sequence (O95136 whole entry): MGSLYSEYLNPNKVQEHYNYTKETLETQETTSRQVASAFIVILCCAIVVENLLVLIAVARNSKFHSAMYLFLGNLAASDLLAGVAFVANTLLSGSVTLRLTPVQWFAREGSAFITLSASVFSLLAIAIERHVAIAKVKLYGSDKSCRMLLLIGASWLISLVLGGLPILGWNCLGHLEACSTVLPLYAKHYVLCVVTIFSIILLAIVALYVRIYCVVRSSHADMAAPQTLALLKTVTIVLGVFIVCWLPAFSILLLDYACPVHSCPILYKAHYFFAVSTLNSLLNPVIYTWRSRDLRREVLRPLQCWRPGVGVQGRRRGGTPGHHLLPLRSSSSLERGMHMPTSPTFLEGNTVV

In the case of `CCCCCCCCNc1ncnc2ccccc12`, the EC50 [1] is reported as > 160 µM (inactive), the IC50 [2] is reported as 1.23 µM (active) and the EC50 [3] is reported as 3.26 µM (active). For the same molecule, the IC50 (Jurkat) was > 80 µM (inactive), the IC50 [4] was > 80 µM (inactive) and the AC50 (INS1) was 0.232 µM (active). The IC50 (Protein skinhead-1) was 33 µM (active) and the CC50 [5] was > 40 µM (active).
For `COC(=O)C1=C(C)N(Cc2ccccc2C(F)(F)F)C(NCc2ccc(C(F)(F)F)cc2)=NC1c1ccccc1` (stereo unspecified), the IC50 [6] was > 96.6 µM (inactive).
In the case of `N#C[C@@H]1[C@H](c2ccc(C3=CCCCC3)cc2)[C@@H](CO)N1C(=O)NC1CCCC1`, the AC50 [7] is reported as 9.32 µM (active), the AC50 [8] is reported as 62.5 µM (active) and the AC50 [9] is reported as 0.42 µM (active). For the same molecule, the AC50 [10] was 0.409 µM (active), the AC50 [11] was > 39 µM (inactive) and the AC50 [12] was 0.399 µM (active). For the same molecule, the AC50 [13] was 0.549 µM (active).
